{"source": "paper PMC10322960", "about": "(European Journal of Drug Metabolism and Pharmacokinetics, 2023)", "key": {"MATE1 [1]": {"target": "T1, MATE1 (Homo sapiens, UniProt Q96FL8)", "T1 sequence (Q96FL8 1-570)": "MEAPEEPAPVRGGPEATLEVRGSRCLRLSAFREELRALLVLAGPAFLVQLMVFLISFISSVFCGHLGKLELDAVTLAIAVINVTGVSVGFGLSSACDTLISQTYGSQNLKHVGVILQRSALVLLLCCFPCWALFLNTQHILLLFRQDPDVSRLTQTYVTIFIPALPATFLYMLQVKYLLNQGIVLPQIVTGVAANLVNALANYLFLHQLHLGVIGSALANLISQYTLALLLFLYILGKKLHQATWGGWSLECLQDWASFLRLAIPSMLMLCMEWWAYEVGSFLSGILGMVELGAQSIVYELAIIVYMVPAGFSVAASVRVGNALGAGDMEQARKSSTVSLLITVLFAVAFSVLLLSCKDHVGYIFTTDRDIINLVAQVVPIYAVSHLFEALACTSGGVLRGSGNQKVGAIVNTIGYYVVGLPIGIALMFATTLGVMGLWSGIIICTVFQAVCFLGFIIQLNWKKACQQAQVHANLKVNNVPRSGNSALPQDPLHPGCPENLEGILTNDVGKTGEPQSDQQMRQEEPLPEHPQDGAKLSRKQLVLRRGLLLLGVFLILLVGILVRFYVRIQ", "test": "MATE1 uptake inhibition assay", "format": "in vitro ADME"}, "OCT2": {"target": "T2, OCT2 (Homo sapiens, UniProt O15244)", "T2 sequence (O15244 1-555)": "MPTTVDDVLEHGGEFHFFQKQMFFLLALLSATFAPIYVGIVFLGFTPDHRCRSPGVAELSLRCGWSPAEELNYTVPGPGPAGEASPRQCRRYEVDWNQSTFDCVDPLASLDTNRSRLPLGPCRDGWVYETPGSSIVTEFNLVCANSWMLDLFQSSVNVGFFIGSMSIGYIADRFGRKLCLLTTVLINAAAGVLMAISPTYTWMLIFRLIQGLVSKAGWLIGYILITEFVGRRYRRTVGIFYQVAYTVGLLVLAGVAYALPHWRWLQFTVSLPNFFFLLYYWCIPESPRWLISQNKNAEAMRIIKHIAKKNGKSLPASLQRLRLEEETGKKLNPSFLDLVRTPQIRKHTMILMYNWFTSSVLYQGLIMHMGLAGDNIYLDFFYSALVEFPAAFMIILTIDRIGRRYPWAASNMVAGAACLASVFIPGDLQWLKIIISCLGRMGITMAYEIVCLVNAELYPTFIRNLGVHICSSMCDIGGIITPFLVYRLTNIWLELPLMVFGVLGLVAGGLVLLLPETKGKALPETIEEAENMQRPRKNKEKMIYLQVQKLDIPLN", "test": "OCT2 uptake inhibition assay", "format": "in vitro ADME", "conditions": "0.63–40 μM"}, "OATP1B1": {"target": "T3, OATP1B1 (Homo sapiens, UniProt Q9Y6L6)", "T3 sequence (Q9Y6L6 1-691)": "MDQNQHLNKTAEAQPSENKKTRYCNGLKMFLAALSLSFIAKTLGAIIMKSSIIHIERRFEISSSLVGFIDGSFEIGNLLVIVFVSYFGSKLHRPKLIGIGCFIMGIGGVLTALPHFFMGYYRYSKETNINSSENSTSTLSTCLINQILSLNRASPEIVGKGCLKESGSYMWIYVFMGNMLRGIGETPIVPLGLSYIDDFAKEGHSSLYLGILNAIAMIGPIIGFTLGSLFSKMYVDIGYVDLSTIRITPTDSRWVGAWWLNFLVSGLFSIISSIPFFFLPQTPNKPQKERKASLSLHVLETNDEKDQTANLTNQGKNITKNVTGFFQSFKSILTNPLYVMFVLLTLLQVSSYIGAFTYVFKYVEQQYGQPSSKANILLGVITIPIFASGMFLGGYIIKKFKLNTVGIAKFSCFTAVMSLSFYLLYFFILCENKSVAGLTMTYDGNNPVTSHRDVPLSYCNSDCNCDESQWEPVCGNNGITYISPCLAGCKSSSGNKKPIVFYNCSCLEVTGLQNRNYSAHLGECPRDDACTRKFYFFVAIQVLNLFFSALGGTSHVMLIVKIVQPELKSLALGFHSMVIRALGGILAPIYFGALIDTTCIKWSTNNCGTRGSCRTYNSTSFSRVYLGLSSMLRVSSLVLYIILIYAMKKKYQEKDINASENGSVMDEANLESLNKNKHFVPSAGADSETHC", "test": "OATP1B1 uptake inhibition assay", "format": "in vitro ADME"}, "CYP2C19": {"target": "CYP2C19 (Homo sapiens, UniProt P33261)", "sequence (P33261 whole entry)": "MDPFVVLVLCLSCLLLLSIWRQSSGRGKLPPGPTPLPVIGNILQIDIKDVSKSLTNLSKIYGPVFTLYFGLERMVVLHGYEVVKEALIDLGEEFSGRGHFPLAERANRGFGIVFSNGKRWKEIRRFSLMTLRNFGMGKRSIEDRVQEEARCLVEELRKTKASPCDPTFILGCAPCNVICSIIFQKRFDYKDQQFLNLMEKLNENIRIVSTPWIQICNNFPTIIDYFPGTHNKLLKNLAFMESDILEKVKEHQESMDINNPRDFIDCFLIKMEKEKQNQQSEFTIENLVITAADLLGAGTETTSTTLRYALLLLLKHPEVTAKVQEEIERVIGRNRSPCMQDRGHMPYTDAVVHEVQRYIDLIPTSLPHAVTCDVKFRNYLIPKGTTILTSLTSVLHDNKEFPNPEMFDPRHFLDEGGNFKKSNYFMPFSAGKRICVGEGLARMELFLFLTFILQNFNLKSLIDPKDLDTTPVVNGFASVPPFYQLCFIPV", "test": "In vitro P450 inhibition, recombinant CYP2C19", "format": "in vitro ADME"}, "CYP3A4": {"target": "CYP3A4 (Homo sapiens, UniProt P08684)", "sequence (P08684 whole entry)": "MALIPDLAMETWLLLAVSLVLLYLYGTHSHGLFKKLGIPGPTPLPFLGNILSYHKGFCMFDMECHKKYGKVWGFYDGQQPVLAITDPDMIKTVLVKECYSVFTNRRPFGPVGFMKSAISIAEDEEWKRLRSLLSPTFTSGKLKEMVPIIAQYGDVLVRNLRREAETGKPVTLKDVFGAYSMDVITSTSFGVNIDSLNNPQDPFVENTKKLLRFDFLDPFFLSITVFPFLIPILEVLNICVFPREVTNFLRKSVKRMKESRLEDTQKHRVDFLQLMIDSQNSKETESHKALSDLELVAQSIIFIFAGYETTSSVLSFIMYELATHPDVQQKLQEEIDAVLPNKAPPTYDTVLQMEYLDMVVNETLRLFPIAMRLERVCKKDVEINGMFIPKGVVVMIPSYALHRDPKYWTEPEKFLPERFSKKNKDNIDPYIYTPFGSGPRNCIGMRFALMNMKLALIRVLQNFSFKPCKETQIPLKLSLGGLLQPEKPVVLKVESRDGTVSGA", "format": "in vitro ADME", "conditions": "3 µm ocedurenone, NADPH, 60 min"}, "[2]": {"conditions": "0.5 to 30 mg administered orally; cited from earlier work"}, "MATE1 [3]": {"target": "T1, MATE1", "test": "MATE1 uptake substrate assay", "format": "in vitro ADME"}, "OAT3": {"target": "T4, OAT3 (Homo sapiens, UniProt Q8TCC7)", "T4 sequence (Q8TCC7 1-542)": "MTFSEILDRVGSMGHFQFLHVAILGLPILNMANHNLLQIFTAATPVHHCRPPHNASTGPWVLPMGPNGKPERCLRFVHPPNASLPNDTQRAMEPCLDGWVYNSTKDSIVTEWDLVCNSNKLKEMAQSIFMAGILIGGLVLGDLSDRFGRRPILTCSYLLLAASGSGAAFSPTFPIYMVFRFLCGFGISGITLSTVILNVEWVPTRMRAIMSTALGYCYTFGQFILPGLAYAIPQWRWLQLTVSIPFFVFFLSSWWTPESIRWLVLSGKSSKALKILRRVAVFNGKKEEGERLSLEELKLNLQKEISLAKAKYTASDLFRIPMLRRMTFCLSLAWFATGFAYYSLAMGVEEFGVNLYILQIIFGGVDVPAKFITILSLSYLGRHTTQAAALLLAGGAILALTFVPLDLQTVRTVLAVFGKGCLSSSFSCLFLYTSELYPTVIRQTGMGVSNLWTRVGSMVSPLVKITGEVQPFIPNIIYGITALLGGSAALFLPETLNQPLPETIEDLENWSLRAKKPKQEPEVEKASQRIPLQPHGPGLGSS", "test": "OAT3 uptake substrate assay", "format": "in vitro ADME"}, "human liver microsomes": {"test_system": "human liver microsomes", "test": "Human liver microsome incubation with or without chemical enzyme inhibitors", "format": "in vitro ADME"}, "[4]": {"conditions": "transporter-expressing vs control cells, 0.04–40 µm"}}, "data": [{"smiles": "N#Cc1ccc(N2N=C3c4ccc(C(=O)N5CCC(O)CC5)nc4CC[C@@H]3[C@@H]2C2CCCC2)cc1Cl", "note": "[Ocedurenone, ocedurenone]", "values": [{"measurement": "maximum inhibition of MATE1-mediated probe substrate accumulation", "setting": "MATE1 [1]; at 40 µM", "result": 95, "unit": "%"}, {"measurement": "IC50", "setting": "MATE1 [1]; read-out: Inhibition results (IC50), MATE1 UPT, probe metformin (10 µm), Table 1", "result": 6.7, "unit": "µM"}, {"measurement": "interaction with human OCT2 transporter (inhibition)", "setting": "OCT2", "result": "No interaction"}, {"measurement": "maximum inhibition of OATP1B1-mediated probe substrate accumulation", "setting": "OATP1B1; at 40 µM", "result": 72, "unit": "%"}, {"measurement": "IC50", "setting": "OATP1B1; read-out: Inhibition results (IC50), OATP1B1 UPT, uptake assay", "result": 21.9, "unit": "µM"}, {"measurement": "percent remaining activity of CYP2C19", "setting": "CYP2C19; ocedurenone at 200 μM", "result": 78.5, "unit": "%"}, {"measurement": "IC50", "setting": "CYP2C19; read-out: IC50 CYP2C19, recombinant CYP", "result": "> 200", "unit": "µM"}, {"measurement": "inhibition category CYP2C19", "setting": "CYP2C19; recombinant enzyme", "result": "little or no inhibition"}, {"measurement": "metabolism in recombinant CYP3A4 incubation", "setting": "CYP3A4", "result": "Most extensive metabolism"}, {"measurement": "safety and tolerability, single ascending dose", "setting": "[2]", "result": "safe and well-tolerated"}, {"measurement": "Substrate, MATE1 UPT", "setting": "MATE1 [3]", "result": "not likely to be a substrate"}, {"measurement": "Maximum fold accumulation, MATE1 UPT", "setting": "MATE1 [3]; [4]", "result": 1.0}, {"measurement": "Substrate, OAT3 UPT", "setting": "OAT3", "result": "not likely to be a substrate"}, {"measurement": "Maximum fold accumulation, OAT3 UPT", "setting": "OAT3; [4]", "result": "< 2"}, {"measurement": "stability in human hepatic microsomes", "setting": "human liver microsomes", "result": "stable"}, {"measurement": "ocedurenone metabolism in HLM with chemical inhibitor added", "setting": "human liver microsomes; 1-aminobenzotriazole or ketoconazole added separately, 3 µm ocedurenone", "result": "inhibited"}]}]}
